Laboratory results reported in publication PMC11243149, “Assessing the Effects of Thiazole-Carboxamide Derivatives on the Biophysical Properties of AMPA Receptor Complexes as a Potential Neuroprotective Agent” (Molecules, 2024).
Where two headings read alike, the source gives them in different places.

What was measured:
Type in all cases: cell-based
GluA1 = molecular target: T1, GluA1 (Homo sapiens, UniProt P42261); test: Whole-cell patch-clamp recordings of homomeric GluA1 AMPAR in transfected HEK293T cells; conditions: GluA1; for Amplitude (glutamate plus TC compound): 10 mM glutamate + TC compound (12 µM optimal concentration), HEK293T, -60 mV, pH 7.4, 22 °C, mean ± SEM; for t deact: weighted tau of deactivation, 10 mM glutamate for 1 ms, glutamate alone 2.1±0.1; for t deact / t des: with TC compound; for t des: weighted tau of desensitization, 10 mM glutamate 500 ms, glutamate alone 2.5±0.1
T1 construct: expressed in transfected cells; host or cells: HEK293T
T1 sequence (P42261 19-906 isoform P42261-2 limits assumed, species assumed): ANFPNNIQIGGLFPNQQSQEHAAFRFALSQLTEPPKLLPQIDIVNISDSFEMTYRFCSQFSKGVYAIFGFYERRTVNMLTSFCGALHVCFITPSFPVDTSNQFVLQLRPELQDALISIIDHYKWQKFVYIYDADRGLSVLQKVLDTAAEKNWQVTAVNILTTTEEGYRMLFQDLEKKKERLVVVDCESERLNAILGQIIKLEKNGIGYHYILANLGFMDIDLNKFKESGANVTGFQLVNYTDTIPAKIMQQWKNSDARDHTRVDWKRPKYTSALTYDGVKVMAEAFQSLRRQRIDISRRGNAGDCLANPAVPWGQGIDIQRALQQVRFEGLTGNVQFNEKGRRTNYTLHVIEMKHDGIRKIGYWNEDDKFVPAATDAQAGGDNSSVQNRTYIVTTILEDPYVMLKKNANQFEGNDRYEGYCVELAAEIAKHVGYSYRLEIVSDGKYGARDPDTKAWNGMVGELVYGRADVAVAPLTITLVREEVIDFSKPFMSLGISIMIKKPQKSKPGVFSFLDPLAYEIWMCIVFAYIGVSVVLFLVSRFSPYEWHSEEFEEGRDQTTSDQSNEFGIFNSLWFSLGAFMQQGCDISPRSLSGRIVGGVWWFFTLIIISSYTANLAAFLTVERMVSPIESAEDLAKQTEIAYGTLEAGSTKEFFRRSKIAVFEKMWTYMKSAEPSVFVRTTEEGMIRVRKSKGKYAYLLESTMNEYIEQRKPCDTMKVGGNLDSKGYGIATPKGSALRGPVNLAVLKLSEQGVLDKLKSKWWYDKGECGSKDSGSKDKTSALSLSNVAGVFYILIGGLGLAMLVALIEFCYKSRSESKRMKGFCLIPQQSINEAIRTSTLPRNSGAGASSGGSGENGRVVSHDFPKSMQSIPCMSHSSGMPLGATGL
Protocol: (§1) The effect of five TC compounds on whole-cell currents of four AMPAR subunits (GluA1, GluA1/2, GluA2, and GluA2/3) was investigated using transfected HEK293T cells. Each compound was applied separately to each subunit, with experiments conducted on 8–10 cells per condition to ensure reproducibility. […] At a glutamate concentration of 10 mM and a 500 ms protocol, approximately 95% of AMPAR channels were open. The A/AI ratio was calculated to compare the results, where A represents normalized current readings and AI indicates the inhibited current following TC compound exposure. […] Following closely, TC-1 inhibited the tested subunits by 5-fold.
(§2) The IC50 values were examined using GraphPad Prism software 9.5.0.730 (x64) (Table S6), which confirmed these findings. The IC50 values of TC substances were calculated by standardizing the peak current amplitudes using data obtained from 8–10 cells. Following a 500 ms exposure to the compounds, the cells were rinsed with glutamate for 20 s. Next, a solution containing just glutamate at a concentration of 10 mM was administered, and the resulting immediate induced electrical current was measured and documented (Figure 3).
(§3) In addition, an evaluation was conducted on the deactivation rates (τw deact) of all the examined chemicals to investigate their impact on the kinetics of deactivation. The chemicals were assessed for their effect on the deactivation kinetics of AMPAR subunits by briefly administering 10 mM glutamate for 1 ms to begin currents. This experimental setup allowed for the observation of τw deact under controlled conditions. […] TC-5 induced an approximately 2-fold increase in τw deact across all four tested subunits. […] These findings highlight the differential impact of TC compounds on deactivation kinetics across AMPAR subunits, shedding light on their potential neuroprotective mechanisms.
(§4) The flip isoform was uniformly employed across all AMPAR subunits in this study. These subunits were subcloned into the pRK vector and expressed in Human Embryonic kidney cells sourced (Sigma, München, Germany). HEK293T cells were grown in Dulbecco Modified Eagle Medium (DMEM) (Sigma, München, Germany) containing 10% FBS (fetal bovine serum), 0.1 mg/mL streptomycin, and 1 mM sodium pyruvate (Biological Industries; Beit-Haemek, Israel). HEK293T cells were incubated at 37 °C and 5% CO2 was supplemented to the medium. It was subcultured twice a week until cells reached pass #20. The transfection reagent used was either jetPRIME (Polyplus: New York, NY, USA) or Lipofectamine 2000 (Invitrogen; San Diego, CA, USA). Cells were kept for 36 h. after transfection in 12-well plates. Then, they were replated on coverslips coated with Laminin (1 mg/mL; Sigma, Germany) for electrophysiology recordings. Cells were then seeded in Petri dishes in DMEM supplemented with 10% fetal calf serum and antibiotics and maintained in a humidified incubator at 37 °C and 5% CO2. Highly fluorescent cells were identified and selected for recording post-transfection.
(§5) HEK293T cells were recorded for 36–48 h, at a temperature of 22 °C, with a membrane potential of −60 mV. HEK293T cells were recorded 36–48 h after transfection using IPA (Integrated Patch Amplifier) via the […], at a temperature of 22 °C, with a membrane potential of −60 mV. SutterPatch Software v. 1.1.1 (Sutter Instruments, Novato, CA, USA) was used to digitize membrane currents for a short period. The sampling frequency was set to 10 kHz, and the low-pass filter was set to 2 kHz. Borosilicate glass was used to fabricate the patch electrodes with a resistance of 2–4 MΩ. The extracellular solution contained the following (values are in mM): 150 NaCl, 2.8 KCl, 0.5 MgCl2, 2 CaCl2, and 10 HEPES, adjusted to pH 7.4 with NaOH. The pipette solution contained the following (values are in mM): 110 CsF, 30 CsCl, 4 NaCl, 0.5 CaCl2, 10 […], and 10 HEPES, adjusted to pH 7.2 with CsOH. […]

GluA1/2 = molecular target: T2, GluA1/2 (Homo sapiens, UniProt P42261+P42262); test: Whole-cell patch-clamp recordings of heteromeric GluA1/2 AMPAR in transfected HEK293T cells; conditions: for Amplitude (glutamate plus TC compound): 10 mM glutamate + TC compound (12 µM optimal concentration), HEK293T, -60 mV, pH 7.4, 22 °C, mean ± SEM; for Amplitude (glutamate plus TC compound) / Amplitude, applying glutamate alone after TC compound: n = 10; for Amplitude, applying glutamate alone after TC compound: 10 mM glutamate alone after 20 s wash following the TC compound; for A/AI: ratio of current with glutamate alone (A) to inhibited current after TC compound (AI); for t deact: weighted tau of deactivation, 10 mM glutamate for 1 ms, glutamate alone 2.5±0.3; for t deact / t des: with TC compound; for t des: weighted tau of desensitization, 10 mM glutamate 500 ms, glutamate alone 5.2±0.5
T2 construct: expressed in transfected cells; host or cells: HEK293T
T2 sequence (P42261 19-906 isoform P42261-2 limits assumed): as the sequence (P42261 19-906 isoform P42261-2 limits assumed, species assumed) above
T2 sequence (P42262 25-883 isoform P42262-2 limits assumed): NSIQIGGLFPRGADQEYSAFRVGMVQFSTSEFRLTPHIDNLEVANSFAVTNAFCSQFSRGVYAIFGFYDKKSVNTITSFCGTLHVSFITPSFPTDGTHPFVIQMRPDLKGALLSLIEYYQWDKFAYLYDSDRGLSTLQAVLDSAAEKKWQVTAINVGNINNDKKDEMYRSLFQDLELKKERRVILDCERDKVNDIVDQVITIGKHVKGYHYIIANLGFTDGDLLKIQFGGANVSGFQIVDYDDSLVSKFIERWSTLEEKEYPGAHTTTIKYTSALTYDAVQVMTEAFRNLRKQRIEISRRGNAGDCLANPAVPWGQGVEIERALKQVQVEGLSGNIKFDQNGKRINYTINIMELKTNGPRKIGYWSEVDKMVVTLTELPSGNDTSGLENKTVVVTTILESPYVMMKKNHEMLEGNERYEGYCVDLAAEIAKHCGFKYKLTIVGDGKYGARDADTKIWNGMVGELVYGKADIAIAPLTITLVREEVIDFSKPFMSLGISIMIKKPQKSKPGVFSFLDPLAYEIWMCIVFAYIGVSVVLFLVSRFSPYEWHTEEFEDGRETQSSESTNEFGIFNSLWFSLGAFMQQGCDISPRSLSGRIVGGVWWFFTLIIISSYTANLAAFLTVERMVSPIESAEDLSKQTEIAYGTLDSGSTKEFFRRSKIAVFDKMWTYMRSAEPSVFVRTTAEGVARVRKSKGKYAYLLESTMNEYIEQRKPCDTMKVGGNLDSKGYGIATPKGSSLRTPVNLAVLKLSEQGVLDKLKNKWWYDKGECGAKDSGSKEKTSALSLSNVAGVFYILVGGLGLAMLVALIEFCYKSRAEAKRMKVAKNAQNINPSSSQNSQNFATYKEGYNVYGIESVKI
Protocol: as §1, §2, §3, §4, §5

GluA2 = molecular target: T3, GluA2 (Homo sapiens, UniProt P42262); test: Whole-cell patch-clamp recordings of homomeric GluA2 AMPAR in transfected HEK293T cells; conditions: for Amplitude (glutamate plus TC compound): 10 mM glutamate + TC compound (12 µM optimal concentration), HEK293T, -60 mV, pH 7.4, 22 °C, mean ± SEM; for Amplitude (glutamate plus TC compound) / Amplitude, applying glutamate alone after TC compound: n = 10; for Amplitude, applying glutamate alone after TC compound: 10 mM glutamate alone after 20 s wash following the TC compound; for t deact: weighted tau of deactivation, 10 mM glutamate for 1 ms, glutamate alone 2.3±0.1; for t deact / t des: with TC compound; for t des: weighted tau of desensitization, 10 mM glutamate 500 ms, glutamate alone 2.6±0.1
T3 construct: expressed in transfected cells; host or cells: HEK293T
T3 sequence (P42262 25-883 isoform P42262-2 limits assumed, species assumed): as the sequence (P42262 25-883 isoform P42262-2 limits assumed) above
Protocol: as §1, §2, §3, §4, §5

GluA2/3 = molecular target: T4, GluA2/3 (Homo sapiens, UniProt P42262+P42263); test: Whole-cell patch-clamp recordings of heteromeric GluA2/3 AMPAR in transfected HEK293T cells; conditions: for Amplitude (glutamate plus TC compound): 10 mM glutamate + TC compound (12 µM optimal concentration), HEK293T, -60 mV, pH 7.4, 22 °C, mean ± SEM; for Amplitude (glutamate plus TC compound) / Amplitude, applying glutamate alone after TC compound: n = 10; for Amplitude, applying glutamate alone after TC compound: 10 mM glutamate alone after 20 s wash following the TC compound; for A/AI: ratio of current with glutamate alone (A) to inhibited current after TC compound (AI); for t deact: weighted tau of deactivation, 10 mM glutamate for 1 ms, glutamate alone 2.6±0.3; for t deact / t des: with TC compound; for t des: weighted tau of desensitization, 10 mM glutamate 500 ms, glutamate alone 2.7±0.2
T4 construct: expressed in transfected cells; host or cells: HEK293T
T4 sequence (P42262 25-883 isoform P42262-2 limits assumed): as above
T4 sequence (P42263 29-894 isoform P42263-2 limits assumed): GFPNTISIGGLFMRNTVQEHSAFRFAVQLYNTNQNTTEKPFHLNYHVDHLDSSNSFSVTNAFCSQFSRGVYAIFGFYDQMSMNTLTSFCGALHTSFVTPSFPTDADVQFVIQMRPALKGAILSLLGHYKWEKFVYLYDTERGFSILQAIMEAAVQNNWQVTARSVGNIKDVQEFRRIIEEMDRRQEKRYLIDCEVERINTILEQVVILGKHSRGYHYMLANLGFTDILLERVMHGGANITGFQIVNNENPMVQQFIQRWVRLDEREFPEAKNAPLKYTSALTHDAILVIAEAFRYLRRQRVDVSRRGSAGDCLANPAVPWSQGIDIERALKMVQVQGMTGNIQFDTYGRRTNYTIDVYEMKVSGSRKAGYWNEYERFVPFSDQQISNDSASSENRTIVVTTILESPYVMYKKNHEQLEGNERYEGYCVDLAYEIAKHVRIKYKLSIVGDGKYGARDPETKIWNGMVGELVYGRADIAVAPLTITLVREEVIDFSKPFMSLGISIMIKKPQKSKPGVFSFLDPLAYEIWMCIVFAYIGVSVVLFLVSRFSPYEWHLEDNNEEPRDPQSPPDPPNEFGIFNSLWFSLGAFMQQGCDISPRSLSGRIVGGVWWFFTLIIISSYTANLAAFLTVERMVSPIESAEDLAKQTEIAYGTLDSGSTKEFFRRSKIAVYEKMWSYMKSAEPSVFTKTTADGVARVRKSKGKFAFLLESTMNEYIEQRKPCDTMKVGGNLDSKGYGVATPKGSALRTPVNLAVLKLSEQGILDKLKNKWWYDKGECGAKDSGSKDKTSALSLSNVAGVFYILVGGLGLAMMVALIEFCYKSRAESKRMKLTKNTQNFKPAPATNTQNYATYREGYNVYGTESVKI
Protocol: as §1, §2, §3, §4, §5

[1] = test system: AMPAR subunits (GluA1, GluA1/2, GluA2, and GluA2/3); test: Whole-cell patch-clamp recordings, statements over all tested AMPAR subunits; conditions: for reduction in τw des: across all examined subunits; for increase in τw deact / decrease in AMPAR subunit activity (inhibition of the whole-cell current): all tested subunits; for increase in τw deact: 10 mM glutamate for 1 ms; for decrease in AMPAR subunit activity (inhibition of the whole-cell current): 10 mM glutamate, 500 ms protocol
Protocol: as §1
A thorough investigation was performed to assess the neuroprotective potential of the TC compounds. The influence of the five TC compounds on the desensitization traces is seen in Figure 4, namely in panels b, d, f, and h. TC-2 caused a substantial reduction in τw des in all receptor subunits, with decreases ranging from 2 to 3 times.
as §3, §4
as §5, with “CsOH. Using double barrel glass (theta tube), glutamate and the solutions of choice were rapidly administered, and the theta tube was mounted on a high-speed piezo solution switcher (Automate Scientific, Berkeley, CA, USA).” for “CsOH.”

[2] = Table S6, read-out: Log IC50 (converted)
[3] = ratio of current with glutamate alone (A) to inhibited current after TC compound (AI)
[4] = Table S6, peak current amplitudes, 8-10 cells, GraphPad Prism fit, read-out: IC50

Amplitude (glutamate plus TC compound) (GluA1; n = 10) [pA]	IC50 (GluA1; [2]) [µM]	t deact (GluA1) [ms]	Amplitude (glutamate plus TC compound) (GluA1/2) [pA]	Amplitude, applying glutamate alone after TC compound (GluA1/2) [pA]	IC50 (GluA1/2; [2]) [µM]	A/AI (GluA1/2)	t deact (GluA1/2) [ms]	Amplitude (glutamate plus TC compound) (GluA2) [pA]	Amplitude, applying glutamate alone after TC compound (GluA2) [pA]	IC50 (GluA2; [2]) [µM]	IC50 (GluA2; read-out: IC50) [µM]	t deact (GluA2) [ms]	Amplitude (glutamate plus TC compound) (GluA2/3) [pA]	Amplitude, applying glutamate alone after TC compound (GluA2/3) [pA]	IC50 (GluA2/3; [2]) [µM]	A/AI (GluA2/3)	SMILES	t des (GluA1) [ms]	t des (GluA1/2) [ms]	t des (GluA2) [ms]	also measured
172±18	3.24	5.6 ± 0.3	115±12	597±66	3.09	5.38±0.08	6.0 ± 0.5	212±20	1131±105	3.02	3.02	6.3 ± 0.2	94±14	484±68	3.02	5.33±0.23	COc1ccc(-c2nc(C(=O)Nc3cc(OC)c(OC)c(OC)c3)cs2)cc1 [TC-2]	1.1 ± 0.1	3.7 ± 0.3	0.9 ± 0.1	Amplitude, applying glutamate alone after TC compound (GluA1; 10 mM glutamate alone after 20 s wash following the TC compound, n = 10): 841±88 pA; IC50 (GluA1; read-out: IC50): 3.2 µM; IC50 (GluA1/2; read-out: IC50): 3.1 µM; A/AI (GluA2; [3]): 5.49±0.05; IC50 (GluA2/3; read-out: IC50): 3.04 µM; t deact (GluA2/3): 5.9 ± 0.4 ms; t des (GluA2/3): 1.0 ± 0.2 ms; reduction in τw des [1]: 2 to 3 fold; increase in τw deact [1]: ~2.5 fold; decrease in AMPAR subunit activity (inhibition of the whole-cell current) [1]: ~5.5 fold
177±33	3.55	5.5 ± 0.4	123±20	553±89	3.47	4.80±0.07	5.6 ± 0.4	250±35	1071±134	3.31	3.35	5.8 ± 0.3	99±22	443±96	3.39	4.79±0.20	COc1ccc(-c2nc(C(=O)Nc3cc(OC)ccc3OC)cs2)cc1 [TC-5]	1.4 ± 0.1	3.8 ± 0.3	1.2 ± 0.1	IC50 (GluA1; [4]): 3.51 µM; A/AI (GluA1; [3]): 4.67±0.10; IC50 (GluA1/2; [4]): 3.49 µM; IC50 (GluA2/3; [4]): 3.42 µM; t deact (GluA2/3): 5.7 ± 0.4 ms; t des (GluA2/3): 1.3 ± 0.2 ms; reduction in τw des [1]: roughly twofold; increase in τw deact [1]: around 2 fold; decrease in AMPAR subunit activity (inhibition of the whole-cell current) [1]: approximately 5 fold
